Assays:
[1] = acute toxicity in the mouse, orally and intravenously; details: in vivo
Procedure: (§1) As already stated, the compounds according to the invention show a marked antiplatelet aggregation activity. Moreover, their toxicity is very low. For example, the acute toxicity of the salt above referred by LM-PT bisulfate, was evaluated in the mouse orally and intravenously. The LD50 were about 400 mg/kg and about 100 mg/kg, respectively. The DPPV (disaggregating power percentage value) was evaluated for LM-PT bisulfate, by the ADP induced aggregation test ex vivo in the rat, orally. For a single dose of 100 mg/kg, the DPPV was 92-96%.

[2] = tested on: ADP induced aggregation; assay: ADP induced aggregation test ex vivo in the rat, orally; details: single dose of 100 mg/kg
Procedure: as §1

**Q.** What does the source list for Cn1cnc2c1c(=O)n(CCCCC(=O)CN1CCc3sccc3C1)c(=O)n2C [LM-PT bisulfate, N-[2-Reto-6-(3,7-dimethylxanthine-1-yl)hexyl]-4,5,6,7-tetrahydro-thieno[3,2-c]pyridine]?
**A.** LD50 ([1]; iv, intravenously): ~100 mg/kg; LD50 ([1]; po, orally): ~400 mg/kg; DPPV (disaggregating power percentage value) [2]: 92-96%

Source: patent EP0199190A2, “Separating element for separating solid particles, suspended in a gaseous current, by centrifugal force in a cylindrical whirl chamber” (Anton Piller GmbH & Co. KG, priority 1985, dated 1986)
